Laboratory results published in PubChem BioAssay AID248 (DTP/NCI, 2004).
Toxic doses and inconclusive results are not listed. Rule as the data show it: active = T/C of 150% or more; inactive = T/C below 125%.

System: L1210 leukemia ip in BDF1 mice, survival T/C
Experiment: NCI In Vivo Anticancer Drug Screen. Data for tumor model L1210 Leukemia (intraperitoneal) in B6D2F1 (BDF1) mice
Conditions: endpoint: mean survival time, higher = longer survival
Procedure, shortened: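 Transplantable tumor model; survival measured in treated vs vehicle control mice. Value = treated/control.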

[1] = dose: 100.0 mg/kg/injection, schedule: Q01DX009 (ip), vehicle: saline
[2] = dose: 200.0 mg/kg/injection, schedule: Q01DX009 (ip), vehicle: saline
[3] = dose: 100.0 mg/kg/injection, schedule: Q04DX003 (ip), vehicle: saline with Tween-80
[4] = dose: 200.0 mg/kg/injection, schedule: Q04DX003 (ip), vehicle: saline with Tween-80
[5] = dose: 400.0 mg/kg/injection, schedule: Q04DX003 (ip), vehicle: saline with Tween-80

Measured: T/C

COC(=O)c1ccccc1NC(=O)C(Cl)Cl
inactive: dose: 100.0 mg/kg/injection, schedule: Q01DX009 (ip), vehicle: other 106 % of control | dose: 200.0 mg/kg/injection, schedule: Q01DX009 (ip), vehicle: other 93 % of control | dose: 400.0 mg/kg/injection, schedule: Q01DX009 (ip), vehicle: other 98 % of control

O=S1CCOCC1.O=S1CCOCC1.O=S1CCOCC1.O=S1CCOCC1.O=S1CCOCC1.O=S1CCOCC1.[Hg+2].[O-][Cl+3]([O-])([O-])O
inactive: dose: 3.0 mg/kg/injection, schedule: Q01DX009 (ip), vehicle: Klucel (hydroxypropylcellulose) (HPC) 93 % of control | dose: 6.0 mg/kg/injection, schedule: Q01DX009 (ip), vehicle: Klucel (hydroxypropylcellulose) (HPC) 92 % of control | dose: 12.5 mg/kg/injection, schedule: Q01DX009 (ip), vehicle: Klucel (hydroxypropylcellulose) (HPC) 98 % of control

O=C(c1ccccc1)N1CCCCC1
inactive: [1] 95 % of control | dose: 100.0 mg/kg/injection, schedule: Q04DX003 (ip), vehicle: saline 95 % of control | [2] 95 % of control | dose: 200.0 mg/kg/injection, schedule: Q04DX003 (ip), vehicle: saline 94 % of control

CN(CCN1CCCCC1)C(=O)C(c1ccccc1)C1CCCCC1 (configuration not stated)
inactive: dose: 75.0 mg/kg/injection, schedule: Q01DX001 (ip), vehicle: saline 98 % of control

CCOC(=O)C(Cc1c[nH]c2ccccc12)NC(=O)/C=C/N(CCCl)CCCl (configuration not stated)
inactive: dose: 10.0 mg/kg/injection, schedule: Q01DX Z (ip), vehicle: other 91 % of control | dose: 20.0 mg/kg/injection, schedule: Q01DX Z (ip), vehicle: other 92 % of control | dose: 40.0 mg/kg/injection, schedule: Q01DX Z (ip), vehicle: other 94 % of control | dose: 80.0 mg/kg/injection, schedule: Q01DX Z (ip), vehicle: other 89 % of control

COc1ccc(Cl)cc1NS(=O)(=O)c1ccc(Cl)cc1[N+](=O)[O-]
inactive: [1] 96 % of control | [2] 94 % of control | dose: 400.0 mg/kg/injection, schedule: Q01DX009 (ip), vehicle: saline 100 % of control

CC1C(C)(C)P(=O)(Oc2ccc3ccccc3c2)C1(C)C (configuration not stated)
inactive: [3] 100 % of control | [4] 97 % of control | [5] 92 % of control

NC(=O)NCO
inactive: dose: 100.0 mg/kg/injection, schedule: Q04DX002 (ip), vehicle: saline with Tween-80 94 % of control | dose: 200.0 mg/kg/injection, schedule: Q04DX002 (ip), vehicle: saline with Tween-80 94 % of control | dose: 400.0 mg/kg/injection, schedule: Q04DX002 (ip), vehicle: saline with Tween-80 90 % of control

COC(=O)c1ccc(C(=O)OC)c(NC(=O)CC(=O)c2ccc([N+](=O)[O-])cc2)c1
inactive: dose: 100.0 mg/kg/injection, schedule: Q01DX009 (ip), vehicle: Klucel (hydroxypropylcellulose) (HPC) 88 % of control | dose: 100.0 mg/kg/injection, schedule: Q04DX003 (ip), vehicle: Klucel (hydroxypropylcellulose) (HPC) 101 % of control | dose: 200.0 mg/kg/injection, schedule: Q01DX009 (ip), vehicle: Klucel (hydroxypropylcellulose) (HPC) 91 % of control | dose: 200.0 mg/kg/injection, schedule: Q04DX003 (ip), vehicle: Klucel (hydroxypropylcellulose) (HPC) 90 % of control | dose: 400.0 mg/kg/injection, schedule: Q01DX009 (ip), vehicle: Klucel (hydroxypropylcellulose) (HPC) 91 % of control | dose: 400.0 mg/kg/injection, schedule: Q04DX003 (ip), vehicle: Klucel (hydroxypropylcellulose) (HPC) 96 % of control

CC1CN=C(c2ccc(NC(=O)c3ccc(C(=O)Nc4ccc(C5=NCC(C)CN5)cc4)cc3)cc2)NC1 (configuration not stated)
inactive: dose: 0.12 mg/kg/injection, schedule: Q01DX015 (ip), vehicle: water 100 % of control | dose: 0.25 mg/kg/injection, schedule: Q01DX015 (ip), vehicle: water 102 % of control | dose: 0.5 mg/kg/injection, schedule: Q01DX015 (ip), vehicle: water 104 % of control | dose: 1.0 mg/kg/injection, schedule: Q01DX015 (ip), vehicle: water 104 % of control | dose: 2.0 mg/kg/injection, schedule: Q01DX015 (ip), vehicle: water 122 % of control | dose: 4.0 mg/kg/injection, schedule: Q01DX015 (ip), vehicle: water 114 % of control

CNC(C)C1CCC2C3CC=C4CC(O)CCC4(C)C3CCC12C (configuration not stated)
inactive: dose: 100.0 mg/kg/injection, schedule: Q01DX001 (sc), vehicle: steriod suspending solution 104 % of control | dose: 200.0 mg/kg/injection, schedule: Q01DX001 (sc), vehicle: steriod suspending solution 87 % of control | dose: 400.0 mg/kg/injection, schedule: Q01DX001 (sc), vehicle: steriod suspending solution 94 % of control

O=C(O)C1(c2ccccc2)SCCS1
inactive: [3] 89 % of control | [4] 96 % of control | [5] 94 % of control

CCOc1ccc(Br)cc1/C=N/NS(=O)(=O)c1ccc(C)cc1
inactive: dose: 100.0 mg/kg/injection, schedule: Q01DX009 (ip), vehicle: saline with Tween-80 94 % of control | [3] 97 % of control | dose: 200.0 mg/kg/injection, schedule: Q01DX009 (ip), vehicle: saline with Tween-80 97 % of control | [4] 103 % of control | dose: 400.0 mg/kg/injection, schedule: Q01DX009 (ip), vehicle: saline with Tween-80 101 % of control | [5] 103 % of control

O=C(O)/C(=C\c1ccccc1)Sc1ccccc1
inactive: dose: 75.0 mg/kg/injection, schedule: Q01DX001 (ip), vehicle: acetone 105 % of control | dose: 150.0 mg/kg/injection, schedule: Q01DX001 (ip), vehicle: acetone 98 % of control | dose: 300.0 mg/kg/injection, schedule: Q01DX001 (ip), vehicle: acetone 100 % of control

CCS(=O)(=O)c1ccc(NC(=O)OC(c2ccccc2)c2ccccc2)cc1
inactive: dose: 100.0 mg/kg/injection, schedule: Q01DX001 (ip), vehicle: carboxymethylcellulose (CMC) 94 % of control | dose: 200.0 mg/kg/injection, schedule: Q01DX001 (ip), vehicle: carboxymethylcellulose (CMC) 91 % of control | dose: 400.0 mg/kg/injection, schedule: Q01DX001 (ip), vehicle: carboxymethylcellulose (CMC) 96 % of control

COC(=O)C1=NNCC1C(=O)N1Cc2cc3ccccc3nc2C1 (configuration not stated)
inactive: dose: 10.0 mg/kg/injection, schedule: Q04DX003 (ip), vehicle: saline 103 % of control | dose: 20.0 mg/kg/injection, schedule: Q04DX003 (ip), vehicle: saline 99 % of control | dose: 40.0 mg/kg/injection, schedule: Q04DX003 (ip), vehicle: saline 103 % of control | dose: 80.0 mg/kg/injection, schedule: Q04DX003 (ip), vehicle: saline 92 % of control | dose: 160.0 mg/kg/injection, schedule: Q04DX003 (ip), vehicle: saline 97 % of control

CN1CCN(C(=O)c2ccc(C(=O)N3CCN(C)CC3)cc2)CC1
inactive: dose: 15.0 mg/kg/injection, schedule: Q01DX Z (ip), vehicle: saline 94 % of control | dose: 30.0 mg/kg/injection, schedule: Q01DX Z (ip), vehicle: saline 94 % of control | dose: 60.0 mg/kg/injection, schedule: Q01DX Z (ip), vehicle: saline 108 % of control | dose: 120.0 mg/kg/injection, schedule: Q01DX Z (ip), vehicle: saline 102 % of control | dose: 125.0 mg/kg/injection, schedule: Q01DX Z (ip), vehicle: carboxymethylcellulose (CMC) 96 % of control | dose: 250.0 mg/kg/injection, schedule: Q01DX Z (ip), vehicle: carboxymethylcellulose (CMC) 102 % of control | dose: 500.0 mg/kg/injection, schedule: Q01DX Z (ip), vehicle: carboxymethylcellulose (CMC) 90 % of control

CCCCCCCCCCCCCCCCCC(=O)OCC1OC(OC2(COC(=O)CCCCCCCCCCCCCCCCC)OC(COC(=O)CCCCCCCCCCCCCCCCC)C(OC(=O)CCCCCCCCCCCCCCCCC)C2OC(=O)CCCCCCCCCCCCCCCCC)C(OC(=O)CCCCCCCCCCCCCCCCC)C(OC(=O)CCCCCCCCCCCCCCCCC)C1OC(=O)CCCCCCCCCCCCCCCCC (configuration not stated)
inactive: dose: 100.0 mg/kg/injection, schedule: Q01DX001 (ip), vehicle: other 93 % of control | dose: 200.0 mg/kg/injection, schedule: Q01DX001 (ip), vehicle: other 90 % of control | dose: 400.0 mg/kg/injection, schedule: Q01DX001 (ip), vehicle: other 97 % of control

COc1ccc(N2C(=O)C3C(C2=O)C2c4ccccc4C3C3CCCCN32)cc1 (configuration not stated)
inactive: dose: 75.0 mg/kg/injection, schedule: Q01DX001 (ip), vehicle: other 103 % of control

O=C(O)C(F)(F)F.[Cu+2]
inactive: dose: 12.5 mg/kg/injection, schedule: Q04DX002 (ip), vehicle: saline 98 % of control | dose: 25.0 mg/kg/injection, schedule: Q04DX002 (ip), vehicle: saline 95 % of control
